Assay results reported in BindingDB's records for patent US20260062376 (Research Triangle Institute, 2026).

molecular target: Cannabinoid receptor 1 (Mus musculus, UniProt P47746); assay: [35S]GTPγS Binding Assay
Method: For receptor signaling, membranes (10 μg protein) from either ICR mouse cerebellum mice (6-8 weeks old; Enviga International, Indianapolis, Indiana, United States of America) or HEK cells stably expressing CB1 receptor were preincubated in assay buffer for 10 min with 3 units/ml adenosine deaminase then incubated for 60 min at 30° C. with 30 μM GDP and 0.1 nM [35S]GTPγS (Perkin Elmer Life Sciences, Boston, Massachusetts, United States of America). Non-specific binding was determined by adding 30 μM unlabeled GTPγS.

Sequence of Cannabinoid receptor 1 (P47746 whole entry): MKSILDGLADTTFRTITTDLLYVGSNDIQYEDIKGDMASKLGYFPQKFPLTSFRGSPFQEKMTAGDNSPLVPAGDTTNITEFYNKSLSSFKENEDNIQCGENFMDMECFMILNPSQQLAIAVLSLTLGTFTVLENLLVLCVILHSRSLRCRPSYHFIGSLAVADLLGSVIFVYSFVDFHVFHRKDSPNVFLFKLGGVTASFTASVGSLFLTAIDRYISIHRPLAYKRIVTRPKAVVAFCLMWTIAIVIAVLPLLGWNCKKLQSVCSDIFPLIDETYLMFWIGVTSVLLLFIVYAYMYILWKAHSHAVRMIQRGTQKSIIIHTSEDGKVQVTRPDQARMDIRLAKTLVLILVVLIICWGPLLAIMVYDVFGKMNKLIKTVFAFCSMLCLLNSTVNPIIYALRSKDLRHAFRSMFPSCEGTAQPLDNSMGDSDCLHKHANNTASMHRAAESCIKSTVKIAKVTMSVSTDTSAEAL

| IC50 [µM] | Structure (SMILES) |
| --- | --- |
| 0.275 | O=c1c(NCCc2ccc(Cl)cc2)c(Nc2ccc(Cl)cc2)c1=O [US20260062376, Compound 13] |
| 0.166 | Cc1cccc(CCNc2c(Nc3ccc(Cl)cc3)c(=O)c2=O)c1 [US20260062376, Compound 14] |
| 1.1 | CN(C)c1cccc(CCNc2c(Nc3ccc(Cl)cc3)c(=O)c2=O)c1 [US20260062376, Compound 26] |
| 0.24 | O=c1c(NCCc2cccc(F)c2)c(Nc2ccc(Cl)cc2)c1=O [US20260062376, Compound 25] |
| 0.871 | O=c1c(NCCc2ccc(Br)cc2)c(Nc2ccc(Cl)cc2)c1=O [US20260062376, Compound 38] |
| 0.468 | CCN(CC)c1ccc(CCNc2c(Nc3ccc(Cl)cc3)c(=O)c2=O)cc1 [US20260062376, Compound 48] |
| 0.661 | O=c1c(NCCc2ccccc2F)c(Nc2ccc(Cl)cc2)c1=O [US20260062376, Compound 24] |
| 1.35 | O=c1c(NCCc2cccs2)c(Nc2ccc(Cl)cc2)c1=O [US20260062376, Compound 39] |
| 0.0813 | Cc1ccc(CCNc2c(Nc3ccc(Cl)cc3)c(=O)c2=O)cc1 [US20260062376, Compound 15] |
| 0.295 | O=c1c(NCCc2ccc(Cl)c(Cl)c2)c(Nc2ccc(Cl)cc2)c1=O [US20260062376, Compound 41] |
| 0.331 | Cc1ccc(CCNc2c(Nc3ccc(Cl)cc3)c(=O)c2=O)cc1C [US20260062376, Compound 42] |
| 0.0407 | CN(C)c1ccc(CCNc2c(Nc3ccc(Cl)cc3)c(=O)c2=O)cc1 [US20260062376, Compound 27] |
| 0.229 | O=c1c(NCCc2cccc(Cl)c2)c(Nc2ccc(Cl)cc2)c1=O [US20260062376, Compound 7] |
| 1.78 | O=c1c(NCCc2ccccn2)c(Nc2ccc(Cl)cc2)c1=O [US20260062376, Compound 36] |
| 4.79 | O=c1c(NCCc2cccc(O)c2)c(Nc2ccc(Cl)cc2)c1=O [US20260062376, Compound 43] |

| Structure (SMILES) | IC50 [µM] |
| --- | --- |
| O=c1c(NCCc2ccc(Cl)cc2Cl)c(Nc2ccc(Cl)cc2)c1=O [US20260062376, Compound 44] | 0.525 |
| Cc1ccccc1CCNc1c(Nc2ccc(Cl)cc2)c(=O)c1=O [US20260062376, Compound 35] | 2.69 |
